Assay results taken from PubChem BioAssay AID1981 (Southern Research Specialized Biocontainment Screening …, 2009).

Test system: S. Typhimurium PhoP-promoter GFP reporter counterscreen, fluorescence, 4 h
Assay: S. Typhimurium GFP fluorescence modified counterscreen for PhoP regulon inhibitor project dose response (AID 1981)

Row | SMILES | IC50 [µM]
1 | O=C1c2ccccc2NC(c2ccc(-c3ccc(Br)cc3)o2)N1O (stereo not drawn) | 53
2 | Cc1ccc(C(c2cc(Cl)c3cccnc3c2O)N2CCN(C)CC2)cc1 (stereo not drawn) | 41.1
3 | Cc1ccc(S(=O)(=O)/N=C2/C=C(Sc3ncn[nH]3)C(=O)c3ccccc32)c(C)c1 | 56.1
4 | CCCCCCCNC(=O)C1(CC2CC(c3cccc(Br)c3)=NO2)CCNCC1 (stereo not drawn) | 58.7
5 | CCCCCCCCCCCCCCCC[n+]1cccc2ccccc21 | 19.5
6 | CC(=O)Oc1ccc(C(=O)[C@H]2[C@H]3C(=O)N(c4ccc5ccccc5c4)C(=O)[C@H]3[C@@H]3C=CC=NN32)cc1 | 138
7 | CC(=O)NC(c1cccs1)c1cc([N+](=O)[O-])c2cccnc2c1O (stereo not drawn) | 35.5
8 | O=C(C[n+]1cc(-c2ccc(Cl)cc2)n2c1CCC2)Nc1nc(-c2ccccc2)cs1 | 95
9 | CCCNC(=O)c1cn(CC)c2cc(N3CCN(C)CC3)c(F)cc2c1=O | 40.5
10 | Oc1cccc(/C=N/Nc2ccc(Cl)nn2)c1O | 24.4
11 | CC1CCc2cc(F)cc3c(=O)c(C(=O)O)cn1c23 (stereo not drawn) | 13.5
12 | CC[n+]1c(/C=C/C=C/c2ccc(N(C)C)cc2)sc2ccccc21 | 74
13 | CCn1cc(C(=O)NCCO)c(=O)c2cc(F)c(N3CCN(C)CC3)cc21 | 29.9
14 | CCCCCCCCCCCCCCCCn1cc[n+](C)c1 | 13
15 | COC(=O)c1c(NC(=O)c2ccc([N+](=O)[O-])o2)sc2c1CCN(C(C)C)C2 | 55.8
16 | CCC(C)NC(=O)c1cn(CC)c2cc(N3CCN(C)CC3)c(F)cc2c1=O (stereo not drawn) | 59
17 | O=C(N/N=C/c1coc2ccc(Cl)cc2c1=O)c1cc(O)cc(O)c1 | 137
18 | CO[C@@]1(NC(=O)C2SC(=C(C(N)=O)C(=O)O)S2)C(=O)N2C(C(=O)O)=C(CSc3nnnn3C)CS[C@@H]21 (stereo partly drawn) | 21.7
19 | CN1CCN(c2c(F)cc3c(=O)c(C(=O)O)cn4c3c2OCN4C)CC1 | 0.28

Row | SMILES | IC50 [µM]
20 | COc1c(F)c(F)cc2c(=O)c(C(=O)O)cn(C3CC3)c12 | 66.3
21 | O=C(N/N=C/c1cc(Cl)ccc1O)c1ccncc1 | 31.2
22 | Cc1ccccc1Nc1cc(C)c2c(O)cccc2n1 | 88.2
23 | O=C(OCC1O[C@@H](OC(=O)c2cc(O)c(O)c(O)c2)[C@@H](OC(=O)c2cc(O)c(O)c(O)c2)[C@@H](OC(=O)c2cc(O)c(O)c(O)c2)[C@@H]1OC(=O)c1cc(O)c(O)c(O)c1)c1cc(O)c(O)c(O)c1 (stereo partly drawn) | 83.1
24 | O=C(Nc1ccccc1)Nc1ccc(Cl)c([N+](=O)[O-])c1 | 39.2
25 | Oc1ccc(CN2CCN(Cc3ccccc3)CC2)c2cccnc12 | 59.2
26 | Clc1cc(Br)ccc1OCCCNCc1ccccc1 | 83.4
27 | CCOc1ccc(NC(=O)c2ccc(NC(=O)c3cn4c5c(c(N6CCN(C)CC6)c(F)cc5c3=O)OCC4C)cc2)cc1 (stereo not drawn) | 4.1
28 | O=C(NC(CO)C(O)c1ccc([N+](=O)[O-])cc1)C(Cl)Cl (stereo not drawn) | 9.17
29 | COc1c(N2CCN(C(=S)NC3CC4CCC3C4)C(C)C2)c(F)cc2c(=O)c(C(=O)O)cn(C3CC3)c12 (stereo not drawn) | 5.38
30 | CN(C)c1ccc(O)c2c1CC1CC3C(N(C)C)C(=O)C(C(N)=O)=C(O)[C@@]3(O)C(=O)C1=C2O (stereo partly drawn) | 1.54
31 | Clc1ccc(OCCCNCc2ccccc2)c(Br)c1 | 71.8
32 | C#CCOCCOCCOCCNc1nc(N2CCN(C(=O)CCCCCCCCCCNC(=O)[C@H]([C@@H](C)CC)n3cc(CCCCN=C(N)N)nn3)CC2)nc(N2CCN(C(=O)CCCCCCCCCCNC(=O)[C@H]([C@@H](C)CC)n3cc(CCCCN=C(N)N)nn3)CC2)n1 | 61.1
33 | C[C@H]1COc2c(N3CCN(C)CC3)c(F)cc3c(=O)c(C(=O)O)cn1c23 | < 0.23
34 | O=C(N[C@H](CO)[C@H](O)c1ccc([N+](=O)[O-])cc1)C(Cl)Cl | 8.46
35 | CCCCCCCCCCOC(=O)Cn1c(COc2cccc(C)c2)[n+](C)c2ccccc21 | 28.5
36 | C/C(=C\C(=O)OCCCCCCCCC(=O)O)C[C@@H]1OC[C@H](C[C@@H]2O[C@H]2[C@@H](C)[C@H](C)O)[C@@H](O)[C@H]1O | 14.1
37 | COc1ccc(OCc2n(CC(=O)OC3CC(C)CCC3C(C)C)c3ccccc3[n+]2C)cc1 (stereo not drawn) | 113
38 | CNC(=S)N1CCN(c2c(F)cc3c(=O)c(C(=O)O)cn(C4CC4)c3c2OC)CC1C (stereo not drawn) | 15.2
